# Laboratory results taken from US20090087845A1, “Genetic Markers Of True Low Birth Weight” (priority 2005, published 2009).
# Where “and” joins values, the source holds several entries; their conditions need not be identical. Identical values can stand only once.
# Tested on: placental gene expression
# Experiment: Placental gene expression (Affymetrix Rat Genome Chip 230.2) after SSRI (fluoxetine) exposure throughout gestation
# Type: in vivo
# Details: placenta, SSRI-exposed samples
# Protocol: Gene expression data from pregnant rats under different forms of dietary restriction was gathered. […] (N=8) • Group 2 (CR50): Rats Given 50% of their Normal Daily Intake of Food. (N=5) • Group 3 (CR70): Rats Given 70% of their Normal Daily Intake of Food. […] (N=6) Placentas from the rats of each Group were harvested on Day 21 of gestation. RNA was extracted and gene expression was measured based on hybridization of RNA to Affymetrix Rat Genome Chips™ (230.2) (Affymetrix, Santa Clara, Calif.).
# In order to determine whether placental gene expression profiling can be used to identify other prenatal exposures such as toxicants and drugs, a group of rats with drug exposure was monitored as described above. […] As with control, CR50, CR70, and HF groups, placentas from the mothers were sampled after 21 days of gestation and gene expression monitored utilizing an Affymetrix Rat Genome Chip.
compound,measurement,value
"CNCCC(Oc1ccc(C(F)(F)F)cc1)c1ccccc1 (centres unmarked) [fluoxetine, Fluoxetine]","expression, probeset 1368985_at",4.725 and 4.454 and 4.646 and 4.715 and 4.588 and 4.472
same,"expression, probeset 1369005_at",5.188 and 5.546 and 5.291 and 5.305 and 5.241 and 5.222
same,"expression, probeset 1369014_at",4.757 and 5.004 and 4.708 and 4.543 and 4.616 and 4.993
same,"expression, probeset 1369051_at",5.588 and 5.207 and 4.835 and 5.011 and 5.144 and 5.186
same,"expression, probeset 1369192_at",5.561 and 5.364 and 5.202 and 5.355 and 5.327 and 5.66
same,"expression, probeset 1369754_a_at",8.583 and 8.277 and 8.264 and 8.283 and 8.554 and 8.483
same,"expression, probeset 1369894_at",3.616 and 3.758 and 3.897 and 3.839 and 4.008 and 3.982
same,"expression, probeset 1370115_at",4.967 and 4.917 and 4.824 and 4.622 and 4.818 and 4.719
same,"expression, probeset 1370260_at",7.313 and 7.599 and 7.249 and 7.038 and 7.707 and 6.879
same,"expression, probeset 1370521_at",8.48 and 8.58 and 8.737 and 8.764 and 8.624 and 8.798
same,"expression, probeset 1370682_at",5.579 and 5.507 and 5.51 and 5.944 and 5.574 and 5.843
same,"expression, probeset 1370688_at",7.904 and 7.963 and 8.096 and 7.915 and 8.157 and 7.99
same,"expression, probeset 1370766_at",4.633 and 4.679 and 4.503 and 4.578 and 4.207 and 4.398
same,"expression, probeset 1371435_at",11.53 and 11.47 and 12.47 and 12.43 and 12.2189 and 12.12
same,"expression, probeset 1371813_at",6.757 and 6.608 and 7.254 and 7.022 and 6.663 and 6.909
same,"expression, probeset 1372141_at",9.643 and 9.597 and 10.34 and 10.39 and 9.957 and 10.19
same,"expression, probeset 1372462_at",7.912 and 7.819 and 7.864 and 7.873 and 6.184 and 8.214
same,"expression, probeset 1372514_s_at",8.136 and 8.21 and 8.071 and 8.128 and 7.741 and 8.134
same,"expression, probeset 1372593_at",7.225 and 7.133 and 7.724 and 8.015 and 7.571 and 7.719
same,"expression, probeset 1373319_at",9.595 and 9.441 and 10.05 and 10.11 and 10.07 and 9.901
same,"expression, probeset 1373396_at",8.164 and 8.317 and 8.21 and 8.056 and 8.147 and 8.247
same,"expression, probeset 1373702_at",7.559 and 7.846 and 7.181 and 7.332 and 7.377 and 7.496
same,"expression, probeset 1373804_at",7.894 and 7.963 and 7.858 and 8.12 and 7.699 and 8.068
same,"expression, probeset 1373925_at",6.195 and 6.159
same,"expression, probeset 1374112_at",7.049 and 6.725 and 6.891 and 7.196 and 7.138 and 6.73
same,"expression, probeset 1374231_at",8.494 and 8.998 and 8.117 and 8.316 and 7.948 and 8.466
same,"expression, probeset 1374656_at",8.729 and 9.034 and 8.507 and 8.743 and 9.004 and 8.9546
same,"expression, probeset 1374739_at",8.348 and 8.65 and 7.424 and 7.76 and 7.662 and 7.815
same,"expression, probeset 1374807_at",6.505 and 6.904 and 6.697 and 6.907 and 6.749 and 6.775
same,"expression, probeset 1375407_at",4.487 and 4.33 and 4.344 and 4.489 and 4.605 and 4.326
same,"expression, probeset 1375738_at",4.993 (2×) and 4.843 and 5.388 and 5.322 and 5.141
same,"expression, probeset 1376136_at",5.074 and 4.867 and 4.557 and 4.873 and 4.805 and 4.931
same,"expression, probeset 1376218_a_at",4.961 and 5.16 and 4.667 and 4.873 and 4.562 and 4.552
same,"expression, probeset 1376278_at",6.191 and 6.405 and 5.934 and 6.175 and 6.205 and 6.006
same,"expression, probeset 1376289_at",3.746 and 3.75 and 3.659 and 3.772 and 3.71 and 3.697
same,"expression, probeset 1376294_at",7.495 and 7.951 and 7.425 and 7.689 and 7.578 and 7.48
same,"expression, probeset 1376844_at",3.958 and 3.92 and 4.036 and 4.211 and 4.082 and 4.214
same,"expression, probeset 1376852_at",6.78 and 6.537 and 6.455 and 6.699 and 6.862 and 6.682
same,"expression, probeset 1377028_at",5.528 and 5.846 and 5.206 and 5.427 and 5.578 and 5.375
same,"expression, probeset 1377123_at",8.958 and 9.069 and 8.729 and 8.819 and 8.853 and 8.789
same,"expression, probeset 1377210_at",5.83 and 5.617 and 6.032 and 5.854 and 6.198 and 5.93
same,"expression, probeset 1377414_at",7.593
same,"expression, probeset 1377476_at",3.935 and 3.899 and 3.84 and 3.865 and 3.998 and 4.107
same,"expression, probeset 1377621_at",8.676 and 8.675 and 8.549 and 8.432 and 8.896 and 8.593
same,"expression, probeset 1377746_at",6.432 and 6.591 and 6.425 and 6.509 and 6.484 and 6.597
same,"expression, probeset 1378275_at",8.581 and 8.43 and 8.773 and 8.828 and 8.515 and 8.555
same,"expression, probeset 1378318_at",7.572 and 7.8 and 8.112 and 7.987 and 7.864 and 8.147
same,"expression, probeset 1378355_a_at",5.807 and 6.412 and 5.853 and 5.536 and 5.777 and 6.037
same,"expression, probeset 1378642_at",6.331 and 6.197 and 6.546 and 6.861 and 6.598 and 6.634
same,"expression, probeset 1378705_at",8.279 and 8.34 and 7.828 and 7.561 and 7.947 and 7.98
same,"expression, probeset 1378872_at",4.782 and 4.711 and 4.621 and 4.863 and 4.867 and 4.775
same,"expression, probeset 1378992_at",3.832 and 3.701 and 3.85 and 3.859 and 3.911 and 3.949
same,"expression, probeset 1379110_at",3.965 and 4.036 and 3.739 and 3.917 and 3.886 and 3.804
same,"expression, probeset 1379140_at",4.026 and 4.28 and 4.108 and 3.886 and 4.071 and 4.079
same,"expression, probeset 1379206_at",6.486 and 6.611 and 6.213 and 6.405 and 6.472 and 6.395
same,"expression, probeset 1379235_x_at",7.486 and 7.695 and 7.128 and 7.252 and 7.527 and 7.244
same,"expression, probeset 1379342_at",6.297 and 6.3 and 6.275 and 6.188 and 6.259 and 6.187
same,"expression, probeset 1379408_at",8.688 and 8.662 and 8.77 and 8.887 and 8.853 and 8.912
same,"expression, probeset 1379796_at",5.201 and 4.92 and 5.205 and 5.072 and 5.171 and 5.031
same,"expression, probeset 1379827_at",7.897 and 7.85 and 7.7663 and 7.925 and 7.632 and 7.663
same,"expression, probeset 1379963_at",6.925 and 7.095 and 7.165 and 7.115 and 7.307 and 7.146
same,"expression, probeset 1379980_at",7.864 and 7.817 and 8.195 and 8.083 and 7.784 and 8.003
same,"expression, probeset 1380152_at",5.47 and 5.228 and 5.461 and 5.179 and 5.39 and 5.269
same,"expression, probeset 1380392_at",6.093 and 5.622 and 5.425 and 5.398 and 5.781 and 5.646
same,"expression, probeset 1380454_at",5.81 and 5.871 and 5.693 and 5.717 and 5.721 and 5.875
same,"expression, probeset 1381074_at",4.343 and 4.301 and 4.059 and 4.183 and 4.17 and 4.086
same,"expression, probeset 1381122_at",5.406 and 5.219 and 5.499 and 5.148 and 5.434 and 5.212
same,"expression, probeset 1381286_at",5.261 and 5.374 and 5.297 and 5.034 and 5.316 and 5.389
same,"expression, probeset 1381483_at",3.996 and 4.01 and 3.983 and 3.972 and 3.97 and 4.017
same,"expression, probeset 1381872_at",6.498 and 7.027 and 7.042 and 6.737 and 6.911 and 6.996
same,"expression, probeset 1381874_at",6.734 and 6.453 and 6.457 and 6.588 and 6.285 and 6.523
same,"expression, probeset 1381941_at",8.218
same,"expression, probeset 1381950_at",3.397 and 3.37 and 3.47 and 3.379 and 3.404
same,"expression, probeset 1381966_at",8.36 and 8.855 and 8.774 and 8.518 and 8.76 and 8.757
same,"expression, probeset 1382015_at",7.649 and 7.911 and 7.376 and 7.559 and 7.728 and 7.55
same,"expression, probeset 1382056_at",8.204 and 7.693 and 8.302 and 8.683 and 9.183 and 8.357
same,"expression, probeset 1382110_at",7.206 and 7.183 and 6.692 and 6.852 and 6.784 and 6.862
same,"expression, probeset 1382513_at",6.939 and 6.904 and 6.918 and 6.844 and 6.991 and 6.992
same,"expression, probeset 1382608_at",5.493 and 5.536 and 5.441 and 5.641 and 5.553 and 5.573
same,"expression, probeset 1382825_at",6.303
same,"expression, probeset 1382932_at",5.367 and 5.211 and 5.239 and 5.252 and 5.387 and 5.359
same,"expression, probeset 1383132_at",5.887 and 6.391 and 5.865 and 5.893 and 5.977 and 5.951
same,"expression, probeset 1383300_at",8.422 and 8.732 and 8.861 and 8.982 and 9.071 and 8.854
same,"expression, probeset 1383309_at",7.874 and 8.135 and 8.529 and 8.112 and 8.518 and 7.955
same,"expression, probeset 1383376_at",6.632 and 7.028 and 7.303 and 6.987 and 6.76 and 6.955
same,"expression, probeset 1383430_at",6.213 and 5.851 and 6.754 and 6.641 and 6.446 and 6.508
same,"expression, probeset 1383443_at",5.895 and 5.907 and 6.025 and 5.854 and 5.859 and 6.136
same,"expression, probeset 1383472_at",3.955 and 3.951 and 3.984 and 4.033 and 3.887 and 3.899
same,"expression, probeset 1383659_a_at",5.774 and 5.519 and 5.386 and 5.431 and 4.833 and 6.496
same,"expression, probeset 1383667_at",8 and 8.041 and 8.381 and 8.126 and 8.244 and 8.175
same,"expression, probeset 1383670_at",7.784 and 7.593 and 7.74 and 7.592 and 7.856 and 7.209
same,"expression, probeset 1383900_at",4.742 and 4.617 and 4.606 and 4.705 and 4.749 and 4.765
same,"expression, probeset 1383984_at",3.997 and 4.264 and 4.189 and 4.266 and 4.14 and 4.315
same,"expression, probeset 1384135_at",7.574 and 7.593 and 7.557 and 7.727 and 7.711 and 7.722
same,"expression, probeset 1384195_at",5.325 and 5.826 and 5.609 and 5.355 and 5.716 and 5.368
same,"expression, probeset 1384374_at",6.358 and 6.643 and 6.365 and 5.887 and 6.421 and 6.362
same,"expression, probeset 1384377_at",7.233 and 7.134 and 7.085 and 7.15 and 7.214 and 7.158
same,"expression, probeset 1384467_at",8.34 and 8.507 and 8.418 and 8.058 and 8.062 and 8.234
